Entries after “also recorded” stand apart in the source; their conditions may differ.
What was measured:
[1] = HPLC measurement of Z and SE isomers produced in the solution after dissolution; assay type: physicochemical; settings: in ethanol solution after dissolution of all crystals
Experimental: (§1) An elution test (stirring condition: 50 rpm) was performed for Raw Material 1 (Crystal of Comparative Example) and Crystal 1 of Example 1 to investigate the elution dynamics. After confirming the dissolution of all crystals, the Z isomer and the SE isomer, which were isomers produced in the solution, were analyzed and quantitatively measured by means of HPLC. In the elution test, 500 mL of anhydrous ethanol was used as the solvent, wherein 1 g of the sample was dissolved at room temperature while stirring, and the time, which was required for the dissolution, was simultaneously measured. Accordingly, it is understood that the time, which is required for the dissolution, is short for Crystal 1, and thus the production of the Z isomer and the SE isomer as the isomers is suppressed in the dissolving step. The condition for HPLC was as follows. Column: CHIRALCEL OD-RH 4.6×150 mm, column temperature: 35° C., mobile phase: mixture solution of methanol/2% aqueous solution of potassium hexafluorophosphate (85:15, v/v), flow rate: 0.6 mL/min., detection: 295 nm).

[2] = Elution test: time required for dissolution in anhydrous ethanol (50 rpm); assay type: physicochemical; settings: 1 g sample in 500 mL anhydrous ethanol, room temperature, stirring 50 rpm
Experimental: as §1, with “step.” for “step. The condition for HPLC was as follows. Column: CHIRALCEL OD-RH 4.6×150 mm, column temperature: 35° C., mobile phase: mixture solution of methanol/2% aqueous solution of potassium hexafluorophosphate (85:15, v/v), flow rate: 0.6 mL/min., detection: 295 nm).”

[3] = Comparison of state of dissolution in ethanol between crystals; assay type: physicochemical; settings: rank order between crystals
Experimental: The alcohol content of Crystal 4 obtained by changing the recrystallization condition of Example 1 was measured, and the state of dissolution in ethanol was also compared with those of Crystal of Comparative Example of Example 1 and Crystal 3 to compare the solubility.
The alcohol content of Crystal 5 obtained by changing the recrystallization condition of Example 1 was measured, and the state of dissolution in ethanol was also compared with those of Crystal of Comparative Example of Example 1 and Crystal 2 to compare the solubility.
The alcohol content of Crystal 6 obtained by changing the recrystallization condition of Example 1 was measured, and the state of dissolution in ethanol was also compared with those of Crystal of Comparative Example of Example 1, Crystal 4, and Crystal 3 to compare the solubility.
The alcohol content of Crystal 7 obtained by changing the recrystallization condition of Example 1 was measured, and the state of dissolution in ethanol was also compared with those of Crystal of Comparative Example of Example 1 and Crystal 5 to compare the solubility.

[4] = State of dissolution in ethanol observed with the naked eye; assay type: physicochemical
Experimental: The alcohol contents of crystals (Crystals 2, 3) obtained by changing the recrystallization condition of Example 1 were measured, and the state of dissolution in ethanol was also observed with the naked eye. Crystal 2 and Crystal 3 are the crystals of the present invention, wherein the dissolution state was satisfactory as well.
The alcohol content (content of alcohol used in recrystallization) of compositions obtained by changing the recrystallization condition of Example 1 was measured, and the state of dissolution in ethanol was also observed with the naked eye.

[5] = Tablet hardness measurement (PTB311); assay type: physicochemical; settings: tablet 50% lactose / 50% luliconazole, tableting pressure 1 ton/cm^2, 9 mmφ, average of 6 tablets
Experimental: According to the formulation described in the following Table 6, tablet was prepared, and its hardness was measured. PTB311 (Pharma Test GmbH) was used as a measurement apparatus for hardness. Condition of tableting was performed at tableting pressure of 1 ton/cm^2 by utilizing 9 mmφ of a mortar and mallet. Comparative example was prepared by performing same procedures as described above by using comparative crystal. […] Accordingly, it is assumed that a tablet having high hardness can be obtained by utilizing the active ingredient containing alcohol since the active ingredient containing alcohol has strong affinity between the active ingredients.

[6] = system: Trichomonas vaginalis (clinically isolated strain); test: Trichomonas vaginalis culture, cell count on hemocytometer; assay type: cell-based; settings: 5.08 mg crystal in Trichomonas medium F, culture 4 days at 37° C., start 3.93×10^5 cells/mL
Experimental: Effects of an active ingredient containing alcohol were examined by utilizing crystal 10. Crystal, which was obtained by performing recrystallization from a mixture solution of ethyl acetate and n-hexane and which contained no alcohol, was used as a comparative example (comparative crystal). Direct effects of luliconazole were investigated by utilizing Trichomonas vaginalis (clinically isolated strain). Samples were prepared such that 5.08 mg of comparative crystal was added in “Trichomonas medium F” (Fuji Pharma), 5.08 mg of crystal 10 was added in the medium, and 5 μL of water was added in the medium (control). […] of culture solution containing 3.93×10^5 cells/mL of Trichomonas vaginalis was added to each of the samples, followed by culturing for 4 days at 37° C. After that, cells of Trichomonas were counted on a hemocytometer. Between these three samples, significant difference was confirmed at a critical value of not more than 1%.

**Q.** For `N#C/C(=C1/SC[C@@H](c2ccc(Cl)cc2Cl)S1)n1ccnc1` [Crystal 1, luliconazole], which “Amount of generation of SE isomer” value [1] is on record?
**A.** 0.06%

**Q.** And the “Amount of generation of Z isomer” value [1]?
**A.** 0.06%

**Q.** And the “Time required until dissolution” value [2]?
**A.** 200 min

**Q.** Which “Solubility order (state of dissolution in ethanol compared)” value [3] does the source give for `N#C/C(=C1/SC[C@@H](c2ccc(Cl)cc2Cl)S1)n1ccnc1` [Crystal 2, luliconazole] here?
**A.** Crystal of Comparative Example<<Crystal 2=Crystal 5

**Q.** And the “Solubility (state of dissolution in ethanol)” value [4]?
**A.** satisfactory

**Q.** For `N#C/C(=C1/SC[C@@H](c2ccc(Cl)cc2Cl)S1)n1ccnc1` [Crystal 3, luliconazole], which “Solubility order (state of dissolution in ethanol compared)” value [3] is on record?
**A.** Crystal of Comparative Example<<Crystal 4=Crystal 6<Crystal 3

**Q.** What about the “Solubility (state of dissolution in ethanol)” value [4] of the same compound?
**A.** satisfactory

**Q.** Which “Solubility order (state of dissolution in ethanol compared)” value [3] does the source give for `N#C/C(=C1/SC[C@@H](c2ccc(Cl)cc2Cl)S1)n1ccnc1` [Crystal 4, luliconazole] here?
**A.** Crystal of Comparative Example<<Crystal 4=Crystal 6<Crystal 3

**Q.** For `N#C/C(=C1/SC[C@@H](c2ccc(Cl)cc2Cl)S1)n1ccnc1` [Crystal 5, luliconazole], which “Solubility order (state of dissolution in ethanol compared)” value [3] is on record?
**A.** Crystal of Comparative Example<<Crystal 2=Crystal 5; also recorded: Crystal of Comparative Example<<Crystal 5=Crystal 7

**Q.** For `N#C/C(=C1/SC[C@@H](c2ccc(Cl)cc2Cl)S1)n1ccnc1` [Crystal 6, luliconazole], which “Solubility order (state of dissolution in ethanol compared)” value [3] is on record?
**A.** Crystal of Comparative Example<<Crystal 4=Crystal 6<Crystal 3

**Q.** With `N#C/C(=C1/SC[C@@H](c2ccc(Cl)cc2Cl)S1)n1ccnc1` [Crystal 7, luliconazole] as the compound, how does the “Solubility order (state of dissolution in ethanol compared)” value [3] read?
**A.** Crystal of Comparative Example<<Crystal 5=Crystal 7

**Q.** Which results are given for `N#C/C(=C1/SC[C@@H](c2ccc(Cl)cc2Cl)S1)n1ccnc1` [Crystal 10, luliconazole]?
**A.** Solubility (state of dissolution in ethanol) [4]: satisfactory; Hardness [5]: 73.7 ± 4.2 N; Cells of Trichomonas counted, Average [6]: 256000

**Q.** For `N#C/C(=C1/SC[C@@H](c2ccc(Cl)cc2Cl)S1)n1ccnc1` [Crystal of Comp. Ex., luliconazole, reference compound], which “Solubility order (state of dissolution in ethanol compared)” value ([3]; listed as Comparative Example) is on record?
**A.** Comparative Example<<Crystal 4<Crystal 3

**Q.** What about the “Solubility order (state of dissolution in ethanol compared)” value ([3]; listed as Crystal of Comparative Example) of the same compound?
**A.** Crystal of Comparative Example<<Crystal 2=Crystal 5; also recorded: Crystal of Comparative Example<<Crystal 4=Crystal 6<Crystal 3; also recorded: Crystal of Comparative Example<<Crystal 5=Crystal 7

**Q.** And the “Amount of generation of SE isomer” value [1]?
**A.** 0.09%

**Q.** What about the “Amount of generation of Z isomer” value [1] of the same compound?
**A.** 0.13%

**Q.** What about the Hardness ([5]; listed as Comparative crystal) of the same compound?
**A.** 29.1 ± 3.0 N

**Q.** And the “Cells of Trichomonas counted, Average” value ([6]; listed as Comparative crystal)?
**A.** 376000

**Q.** And the “Time required until dissolution” value [2]?
**A.** 300 min
